From ChEMBL document CHEMBL4196200 (J Med Chem, 2018) come the findings set out here.

Test [1] addresses T1, Vasopressin V1a receptor (Homo sapiens, UniProt P37288). The test can be described thus: Displacement of DY647 from SNAP-tagged V1A receptor (unknown origin) expressed in HEK293 cells by TR-FRET assay. Format: cell-based. (In general: Time-resolved FRET reads energy transfer from a long-lived donor to a nearby acceptor.)
Target sequence in this assay (P37288 whole entry): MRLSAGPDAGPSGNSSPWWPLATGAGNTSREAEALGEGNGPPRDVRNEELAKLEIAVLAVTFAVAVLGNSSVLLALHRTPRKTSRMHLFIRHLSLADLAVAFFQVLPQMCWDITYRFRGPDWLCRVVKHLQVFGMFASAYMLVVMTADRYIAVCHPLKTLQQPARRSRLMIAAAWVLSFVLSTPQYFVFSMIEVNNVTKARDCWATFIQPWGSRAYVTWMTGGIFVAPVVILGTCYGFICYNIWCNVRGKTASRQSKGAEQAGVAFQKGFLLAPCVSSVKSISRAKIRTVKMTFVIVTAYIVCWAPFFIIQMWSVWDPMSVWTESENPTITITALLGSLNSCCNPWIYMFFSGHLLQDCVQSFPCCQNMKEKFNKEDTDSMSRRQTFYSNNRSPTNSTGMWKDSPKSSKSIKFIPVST
Test [2] addresses T2, Oxytocin receptor (Homo sapiens, UniProt P30559).
T2 sequence (P30559 whole entry): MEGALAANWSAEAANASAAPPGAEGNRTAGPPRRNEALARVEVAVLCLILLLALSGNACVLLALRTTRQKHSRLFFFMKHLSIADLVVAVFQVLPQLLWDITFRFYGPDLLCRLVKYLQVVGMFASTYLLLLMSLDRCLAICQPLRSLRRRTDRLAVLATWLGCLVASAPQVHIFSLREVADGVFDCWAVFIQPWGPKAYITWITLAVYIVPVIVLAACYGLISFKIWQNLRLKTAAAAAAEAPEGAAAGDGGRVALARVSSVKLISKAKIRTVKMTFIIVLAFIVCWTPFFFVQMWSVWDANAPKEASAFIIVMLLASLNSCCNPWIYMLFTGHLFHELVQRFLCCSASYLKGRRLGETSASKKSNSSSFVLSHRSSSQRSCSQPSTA
Kind of test: Agonist activity at human OTR expressed in HEK cells assessed as increase in intracellular calcium flux incubated for 45 mins by Indo1-AM dye based fluorescence assay. Format: functional, cell-based. In general terms: A change in cytosolic calcium serves as a functional read-out for many receptors and channels.

The target of test [3] is T3, Oxytocin receptor (Homo sapiens) (UniProt P30559).
T3 sequence (whole entry): T2 sequence (P30559 whole entry)
The test can be described thus: Agonist activity at human OTR expressed in HEK cells assessed as increase in intracellular calcium flux incubated for 45 mins by Indo1-AM dye based fluorescence assay relative to OT. Format: functional, cell-based.

The target of test [4] is T2, Oxytocin receptor. The test can be described thus: Displacement of DY647 from SNAP-tagged OTR receptor (unknown origin) expressed in HEK293 cells by TR-FRET assay. Format: cell-based.
The target in test [5] is T1, Vasopressin V1a receptor. The test can be described thus: Agonist activity at human V1A receptor expressed in HEK cells assessed as increase in intracellular calcium flux at 1 uM incubated for 45 mins by Indo1-AM dye based fluorescence assay relative to AVP. Format: functional, cell-based.
Target sequence in this assay (P37288 whole entry, looked up): as the sequence (P37288 whole entry) above
Test [6] concerns the target T3, Oxytocin receptor (Homo sapiens). Kind of test: Antagonist activity at human OTR expressed in HEK cells assessed as inhibition of OT-induced intracellular calcium flux at 1 uM incubated for 45 mins by Indo1-AM dye based fluorescence assay relative to OT. Format: functional, cell-based.
The target in test [7] is T1, Vasopressin V1a receptor. The test can be described thus: Antagonist activity at human V1A receptor expressed in HEK cells assessed as inhibition of AVP-induced intracellular calcium flux incubated for 45 mins by Indo1-AM dye based fluorescence assay relative to AVP. Format: functional, cell-based.
Target sequence in this assay (P37288 whole entry): as the sequence (P37288 whole entry) above
For test [8], the target named is T3, Oxytocin receptor (Homo sapiens). Kind of test: Agonist activity at human OTR receptor expressed in CHO cells co-expressing NFAT-luciferase incubated for 5 hrs by luciferase reporter gene assay relative to OT. Format: functional, cell-based.
For test [9], the target named is T4, Vasopressin V2 receptor (Homo sapiens, UniProt P30518). Kind of test: Agonist activity at human V2 receptor expressed in human HeLa cells assessed as stimulation of cAMP accumulation by radioimmunoassay. Format: functional, cell-based. In general terms: Cyclic AMP is a second messenger, typically raised through Gs and lowered through Gi signalling.
T4 sequence (P30518 whole entry): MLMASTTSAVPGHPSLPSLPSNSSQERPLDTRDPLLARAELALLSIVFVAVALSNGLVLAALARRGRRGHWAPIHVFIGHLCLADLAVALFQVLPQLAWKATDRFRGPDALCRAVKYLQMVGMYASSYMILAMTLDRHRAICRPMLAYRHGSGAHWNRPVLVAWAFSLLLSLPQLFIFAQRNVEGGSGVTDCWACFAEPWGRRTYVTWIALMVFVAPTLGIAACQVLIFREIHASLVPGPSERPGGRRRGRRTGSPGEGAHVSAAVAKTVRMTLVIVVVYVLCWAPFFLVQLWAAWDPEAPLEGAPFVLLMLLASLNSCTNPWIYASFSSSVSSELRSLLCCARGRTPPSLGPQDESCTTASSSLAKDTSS
Test [10] concerns the target T1, Vasopressin V1a receptor. Kind of test: Displacement of [3H]-AVP from human V1A receptor expressed in human HeLa cell membranes incubated for 2 hrs by scintillation counting method.
Target sequence in this assay (P37288 whole entry): as the sequence (P37288 whole entry) above
Test [11] addresses T4, Vasopressin V2 receptor. The test can be described thus: Displacement of [3H]-AVP from human V2 receptor expressed in human HeLa cell membranes incubated for 2 hrs by scintillation counting method.
The target in test [12] is T5, Vasopressin V1b receptor (Homo sapiens, UniProt P47901).
T5 sequence (P47901 whole entry): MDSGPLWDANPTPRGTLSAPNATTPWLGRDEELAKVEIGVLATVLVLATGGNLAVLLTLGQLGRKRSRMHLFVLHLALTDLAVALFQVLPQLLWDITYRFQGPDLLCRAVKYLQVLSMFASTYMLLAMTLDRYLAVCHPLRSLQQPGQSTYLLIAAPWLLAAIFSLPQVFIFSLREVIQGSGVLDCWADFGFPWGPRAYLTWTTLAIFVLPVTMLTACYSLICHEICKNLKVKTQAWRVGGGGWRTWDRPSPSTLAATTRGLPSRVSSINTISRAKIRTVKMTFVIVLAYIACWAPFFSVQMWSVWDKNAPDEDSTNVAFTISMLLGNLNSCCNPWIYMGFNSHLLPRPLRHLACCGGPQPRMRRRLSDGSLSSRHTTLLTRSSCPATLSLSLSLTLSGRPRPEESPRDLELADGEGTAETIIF
The test can be described thus: Displacement of [3H]-AVP from human V1B receptor expressed in human HeLa cell membranes incubated for 2 hrs by scintillation counting method.

Test [13] has as its target T3, Oxytocin receptor (Homo sapiens). The test can be described thus: Agonist activity at human OTR receptor expressed in HEK293FT cells assessed as stimulation of calcium release by Aequorin based assay relative to OT. Format: functional, cell-based.
Test [14] has the same target. Kind of test: Agonist activity at human OTR receptor expressed in HEK293FT cells incubated for 30 mins by beta-arrestin recruitment assay relative to OT. Format: functional, cell-based.
The target of test [15] is T6, Oxytocin receptor (Mus musculus) (UniProt P97926).
T6 sequence (whole entry): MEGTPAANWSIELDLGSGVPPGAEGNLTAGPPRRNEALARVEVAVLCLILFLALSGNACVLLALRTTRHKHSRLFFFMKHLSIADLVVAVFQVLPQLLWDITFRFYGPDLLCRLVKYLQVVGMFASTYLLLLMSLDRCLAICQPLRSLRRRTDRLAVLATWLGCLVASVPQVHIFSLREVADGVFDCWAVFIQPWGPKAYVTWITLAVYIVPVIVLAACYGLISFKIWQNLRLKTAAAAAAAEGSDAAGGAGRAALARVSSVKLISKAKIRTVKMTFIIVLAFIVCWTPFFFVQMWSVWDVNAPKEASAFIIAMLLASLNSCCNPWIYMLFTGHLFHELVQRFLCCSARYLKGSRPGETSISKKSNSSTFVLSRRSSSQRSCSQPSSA
The test can be described thus: Agonist activity at mouse OTR receptor expressed in HEK293FT cells assessed as stimulation of calcium release by Aequorin based assay relative to OT. Format: functional, cell-based.

Test [16] concerns the target T1, Vasopressin V1a receptor.
Target sequence in this assay (P37288 whole entry): as the sequence (P37288 whole entry) above
Description: Agonist activity at human V1a receptor expressed in HEK293FT cells incubated for 30 mins by beta-arrestin recruitment assay
Test [17] has as its target T4, Vasopressin V2 receptor. Kind of test: Antagonist activity at V2 receptor (unknown origin). Format: functional.
Test [18] has as its target T2, Oxytocin receptor. The test can be described thus: Antagonist activity at OXR receptor (unknown origin). Format: functional.
In test [19] the target is T3, Oxytocin receptor (Homo sapiens). Kind of test: Agonist activity at human OTR receptor expressed in CHO cells assessed as increase in myo-inositol 1-phosphate accumulation at 1 uM by IP-One assay relative to OT. Format: functional, cell-based.
Test [20] concerns the target T1, Vasopressin V1a receptor. Kind of test: Agonist activity at human V1A receptor expressed in CHO cells assessed as increase in myo-inositol 1-phosphate accumulation at 1 uM by IP-One assay relative to AVP. Format: functional, cell-based.
Target sequence in this assay (P37288 whole entry, looked up): as the sequence (P37288 whole entry) above
The target of test [21] is T1, Vasopressin V1a receptor. The test can be described thus: Antagonist activity at V1A receptor (unknown origin). Format: functional.
Target sequence in this assay (P37288 whole entry): as the sequence (P37288 whole entry) above
In test [22] the target is T7, Vasopressin V1b receptor (Rattus norvegicus, UniProt P48974).
T7 sequence (P48974 whole entry): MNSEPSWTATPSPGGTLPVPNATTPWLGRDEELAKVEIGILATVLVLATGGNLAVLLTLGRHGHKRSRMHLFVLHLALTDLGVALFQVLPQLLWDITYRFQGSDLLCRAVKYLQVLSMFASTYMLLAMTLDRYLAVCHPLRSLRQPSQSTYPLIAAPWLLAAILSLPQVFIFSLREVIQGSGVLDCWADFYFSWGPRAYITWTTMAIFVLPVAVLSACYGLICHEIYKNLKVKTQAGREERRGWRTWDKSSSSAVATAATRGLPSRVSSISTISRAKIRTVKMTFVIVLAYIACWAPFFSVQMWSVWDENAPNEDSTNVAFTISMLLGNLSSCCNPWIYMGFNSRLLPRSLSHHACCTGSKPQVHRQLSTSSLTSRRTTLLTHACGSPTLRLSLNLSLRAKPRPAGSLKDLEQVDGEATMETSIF
The test can be described thus: Displacement of [3H]AVP from V1B receptor in Wistar rat pituitary membranes incubated for 60 mins by microplate scintillation counting method. Format: cell membranes.

Molecules are shown by their SMILES.

For orientation: Ki means a dissociation constant, usually derived from enzyme kinetics or from competition with a known ligand. Higher therefore signals weaker binding. Usually EC50 stands for the concentration needed to bring the measured effect to its halfway point. By Emax is commonly meant the greatest response seen or fitted, relative to the assay's reference. Broadly, the inhibition is the percentage by which the read-out fell short of the control. In general, IC50 refers to the concentration needed to halve the response being measured. On to `Cc1cc(C(=O)N2Cc3cnn(C)c3Nc3ccccc32)ccc1CNC(=O)N1CCC[C@H]1C(=S)N1CCCN(C)CC1`, for which the Ki in [1] was found to be 196 nM; in test [4], 141 nM. In addition, in [2], the EC50 turned out to be 28 nM. The Emax in [3] is 84%; in test [5], 5 to 10%; in [8], 100%. Moreover, the inhibition in test [6] lay in the range of 5 to 10%. Moreover, in test [7], the IC50 was found to be 8 nM.

For `CC(C)NC(=O)C[C@H]1CCCN(C(=O)c2ccc(N3CCCC3)cc2Cl)c2ccccc21`, in test [9], the EC50 was found to be 189 nM. The Ki in test [10] turned out to be 819 nM; in [11] it was 91.9 nM. The IC50 in test [12] was more than 100000 nM.

As to `CC[C@H](C)[C@@H]1NC(=O)[C@H](Cc2ccc(O)cc2)NC(=O)[C@@H](N)CSSC[C@@H](C(=O)N2CCC[C@H]2C(=O)N[C@@H](CC(C)C)C(=O)NCC(N)=O)NC(=O)[C@H](CC(N)=O)NC(=O)[C@H](CCC(N)=O)NC1=O` [OXYTOCIN], the Emax in test [13], in test [14] and in test [15] was 100% throughout. The IC50 result in test [16] is listed as “Not Active”.

Take `O=C(Nc1ccc(C(=O)N2CCCCc3ccccc32)cc1)c1ccccc1-c1ccccc1`: the IC50 in test [17] turned out to be 0.57 nM; in test [18] it was 109 nM; in [21], 2.74 nM. The Emax in test [19] and in [20] was less than 10% in each case.

As for `Cc1nc2c([nH]1)-c1ccccc1N(C(=O)c1ccc(NC(=O)c3ccccc3-c3ccccc3)cc1)CC2` [CONIVAPTAN], in test [22], the Ki was more than 10000 nM.
